From BindingDB's records for doi:10.1021/jm00028a009 (Cambridge Neuroscience, 1994)

Target: Sigma non-opioid intracellular receptor 1 (Cavia porcellus)
Experiment: Tested in vitro for the concentration required to inhibit specific [3H]DTG radioligand binding to sigma receptor on guinea pig brain membrane

IC50 [nM] | SMILES
8 | CCc1cccc(N=C(N)Nc2cccc(CC)c2)c1
242 | CC(C)c1ccc(N=C(N)Nc2ccc(C(C)C)cc2)cc1
33 | NC(=Nc1ccc(Br)cc1)Nc1ccc(Br)cc1
96 | CC(C)c1cccc(N=C(N)Nc2cccc(C(C)C)c2)c1
13000 | CN(C(N)=Nc1cccc(N)c1)c1cccc2ccccc12 [N'-(3-Amino-phenyl)-N-methyl-N-naphthalen-1-yl-guanidine]
351 | COc1cccc(N=C(N)Nc2cccc(OC)c2)c1 [N,N'-Bis-(3-methoxy-phenyl)-guanidine]
92 | NC(=Nc1ccc2ccccc2c1)Nc1ccc2ccccc2c1 [N,N'-Di-naphthalen-2-yl-guanidine]
40 | NC(=Nc1cccc2ccccc12)Nc1ccccc1I [N-(2-Iodo-phenyl)-N'-naphthalen-1-yl-guanidine]
91 | CC(C)c1ccccc1N=C(N)Nc1cccc2ccccc12 [N-(2-Isopropyl-phenyl)-N'-naphthalen-1-yl-guanidine]
54 | CCc1cccc(NC(N)=Nc2cccc3ccccc23)c1 [N-(3-Ethyl-phenyl)-N'-naphthalen-1-yl-guanidine]
247 | Cc1cccc(N=C(N)N(C)c2cccc(C)c2)c1 [N-Methyl-N,N'-di-m-tolyl-guanidine]
75 | Cc1cccc(NC(N)=Nc2cccc3ccccc23)c1 [N-Naphthalen-1-yl-N'-m-tolyl-guanidine]

The remaining lines, values behind:

SMILES | IC50 [nM]
NC(=Nc1cccc2ccccc12)Nc1cccc2ccccc12 | 165
N=C(N1CCc2ccccc21)N1CCc2ccccc21 [C-[Bis-(2,3-dihydro-indol-1-yl)]-methyleneamine] | 7180
CCc1cccc(N=C(N)N(C)c2cccc3ccccc23)c1 [N'-(3-Ethyl-phenyl)-N-methyl-N-naphthalen-1-yl-guanidine] | 1000
NC(=Nc1cccc2c1CCC2)Nc1cccc2c1CCC2 [N,N'-Di-indan-4-yl-guanidine] | 29
NC(=Nc1cccc2ccccc12)N(c1ccccc1)c1cccc2ccccc12 [N,N'-Di-naphthalen-1-yl-N-phenyl-guanidine] | 7930
CN(C(=N)N(C)c1cccc2ccccc12)c1cccc2ccccc12 [N,N'-Dimethyl-N,N'-di-naphthalen-1-yl-guanidine] | 10700
CN(C(N)=Nc1cccc2ccccc12)c1cccc(N)c1 [N-(3-Amino-phenyl)-N-methyl-N'-naphthalen-1-yl-guanidine] | 2700
CN(C(N)=Nc1cccc2ccccc12)c1cccc(N=[N+]=[N-])c1 [N-(3-Azido-phenyl)-N-methyl-N'-naphthalen-1-yl-guanidine] | 3020
CCc1cccc(N=C(N)N2CCC(c3ccccc3)CC2)c1 [N-(3-Ethyl-phenyl)-4-phenyl-piperidine-1-carboxamidine] | 60
CCc1cccc(N(C)C(=N)N(C)c2cccc3ccccc23)c1 [N-(3-Ethyl-phenyl)-N,N'-dimethyl-N'-naphthalen-1-yl-guanidine] | 1210
CCN(C(N)=Nc1cccc2ccccc12)c1cccc2ccccc12 [N-Ethyl-N,N'-di-naphthalen-1-yl-guanidine] | 6130
CCc1cccc(N(CC)C(N)=Nc2cccc3ccccc23)c1 [N-Ethyl-N-(3-ethyl-phenyl)-N'-naphthalen-1-yl-guanidine] | 2190
CN(/C(N)=N/c1cccc2ccccc12)c1cccc([N+](=O)[O-])c1 [N-Methyl-N'-naphthalen-1-yl-N-(3-nitro-phenyl)-guanidine] | 6260
CN(C(N)=Nc1cccc2ccccc12)c1ccccc1 [N-Methyl-N'-naphthalen-1-yl-N-phenyl-guanidine] | 2900
CN(C(=N)N(c1ccccc1)c1cccc2ccccc12)c1cccc2ccccc12 [N-Methyl-N,N'-di-naphthalen-1-yl-N'-phenyl-guanidine] | 11000
CN(C(N)=Nc1cccc2ccccc12)c1cccc2ccccc12 [N-Methyl-N,N'-di-naphthalen-1-yl-guanidine] | 4800
C/[N+](=C(/[NH-])Nc1cccc([N+](=O)[O-])c1)c1cccc2ccccc12 [N-Methyl-N-naphthalen-1-yl-N'-(3-nitro-phenyl)-guanidine] | 2640
NC(=Nc1cccc2ccccc12)N1CCC(c2ccccc2)CC1 [N-Naphthalen-1-yl-4-phenyl-piperidine-1-carboxamidine] | 343
NC(=Nc1cccc2ccccc12)N1CCCCCC1 [N-Naphthalen-1-yl-azepane-1-carboxamidine] | 1410
NC(=Nc1cccc2ccccc12)N1CCCCC1 [N-Naphthalen-1-yl-piperidine-1-carboxamidine] | 1070
